Laboratory results reported in ChEMBL document CHEMBL1201862, “PubChem BioAssay data set” (2004).
Activity calls are given as the source filed them.

Experiments:
[1] = P. falciparum Dd2 growth inhibitors, dose response, SYBR Green, cherry-picked samples (AID 1159567); format: functional, cell-based
[2] = HepG2 cell cytotoxicity, dose response, cytotoxicity control, cherry-picked samples (AID 1159577); format: functional, cell-based
[3] = target: T1, RNA-binding protein pos-1 (Caenorhabditis elegans, UniProt G5EF15); experiment: inhibitors of POS-1/mex-3 RNA binding, dose response, biochemical, fluorescence polarization (AID 1964);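 also: purified POS-1 fused to maltose binding protein made in E. coli; potency of compounds blocking POS-1 binding to fluorescent RNA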
T1 sequence (G5EF15 whole entry): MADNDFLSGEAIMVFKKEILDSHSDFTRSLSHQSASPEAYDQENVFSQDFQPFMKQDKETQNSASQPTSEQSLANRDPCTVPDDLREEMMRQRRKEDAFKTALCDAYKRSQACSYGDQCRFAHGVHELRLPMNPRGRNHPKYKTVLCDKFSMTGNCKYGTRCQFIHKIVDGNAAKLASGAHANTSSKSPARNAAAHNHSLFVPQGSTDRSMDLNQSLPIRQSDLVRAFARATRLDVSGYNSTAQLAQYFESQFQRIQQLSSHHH

[4] = test system: Streptococcus sp. 'group A'; experiment: growth inhibition of control SK(-) GAS strain, dose response, counter-screen for streptokinase expression inhibitor project, luminescence, kanamycin, BacTiterGlo, confirmation (AID 1900); format: functional, organism-based
[5] = target: T2, Zinc finger protein mex-5 (Caenorhabditis elegans, UniProt Q9XUB2); experiment: MEX-5/TCR-2 RNA interaction inhibitors, dose response, biochemical, C. elegans, fluorescence polarization (AID 1960)
T2 sequence (Q9XUB2 whole entry): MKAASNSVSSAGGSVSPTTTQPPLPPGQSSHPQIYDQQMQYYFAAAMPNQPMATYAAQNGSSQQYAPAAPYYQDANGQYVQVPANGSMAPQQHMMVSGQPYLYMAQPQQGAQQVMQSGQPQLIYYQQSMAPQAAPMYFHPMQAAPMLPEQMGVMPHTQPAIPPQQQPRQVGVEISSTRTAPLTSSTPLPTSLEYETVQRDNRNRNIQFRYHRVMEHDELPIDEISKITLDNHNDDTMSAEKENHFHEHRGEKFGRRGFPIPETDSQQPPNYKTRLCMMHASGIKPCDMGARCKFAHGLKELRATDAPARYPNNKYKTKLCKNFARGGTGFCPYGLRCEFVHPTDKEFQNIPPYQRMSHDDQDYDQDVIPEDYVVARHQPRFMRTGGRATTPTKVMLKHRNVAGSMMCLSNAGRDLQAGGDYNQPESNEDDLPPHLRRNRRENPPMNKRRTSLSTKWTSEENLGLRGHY

Streptokinase A = target: T3, Streptokinase A (Streptococcus pyogenes serotype M1, UniProt P10520); experiment: S. pyogenes streptokinase expression inhibitors, potency, dose response, plasminogen activation absorbance, OD405 (AID 1914); format: functional, Streptococcus pyogenes M1 GAS;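 also: secreted streptokinase activity via plasminogen activation per viability signal from cell pellet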
T3 sequence (P10520 whole entry): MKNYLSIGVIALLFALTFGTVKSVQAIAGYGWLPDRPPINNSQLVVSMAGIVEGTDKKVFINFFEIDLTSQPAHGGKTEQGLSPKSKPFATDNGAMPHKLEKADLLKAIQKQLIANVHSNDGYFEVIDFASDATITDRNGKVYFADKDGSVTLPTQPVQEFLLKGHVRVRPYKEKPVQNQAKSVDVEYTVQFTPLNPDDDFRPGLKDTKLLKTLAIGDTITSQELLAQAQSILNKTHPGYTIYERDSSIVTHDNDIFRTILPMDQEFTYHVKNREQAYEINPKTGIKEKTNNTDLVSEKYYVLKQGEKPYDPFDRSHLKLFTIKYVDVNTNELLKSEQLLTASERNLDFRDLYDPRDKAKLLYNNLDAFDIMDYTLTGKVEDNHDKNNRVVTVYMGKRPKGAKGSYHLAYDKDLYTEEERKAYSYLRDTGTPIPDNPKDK

[6] = target: Bifunctional protein GlmU (Mycobacterium tuberculosis, UniProt P9WMN3); experiment: Inhibitors of Mycobacterial Glucosamine-1-phosphate acetyl transferase (GlmU). Secondary screen.; design: species or system Mycobacterium tuberculosis H37Rv
[7] = target: Induced myeloid leukemia cell differentiation protein Mcl-1 (Homo sapiens, UniProt Q07820); format: functional
Streptococcus = experiment: Group A Streptococcus viability loss, dose response, counter-screen for streptokinase expression inhibitor project, luminescence, BacTiterGlo (AID 1915); format: functional, organism-based;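 also: potency for reduction of bacterial viability or growth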
ELAV-like protein 1 = ELAV-like protein 1 (Homo sapiens, UniProt Q15717); experiment: Identify HuR specific inhibitors.; format: functional
[8] = Mtb BioA inhibitors by displacement, dose response, biochemical, coupled fluorescence displacement, 20-point, dry powder (AID 743357); format: functional
Cryptococcus neoformans [9] = experiment: PubChem AID 686997; format: functional, organism-based
HeLa = experiment: HeLa cell cytotoxicity, dose response, cytotoxicity control, ATP luminescence, cherry-pick samples (AID 687004); format: functional, cell-based; conditions: Homo sapiens
Cryptococcus neoformans [10] = experiment: Cryptococcus growth inhibition by alamar blue – cell lysis, cherry-picks, replicate tests, mechanism study for C. neoformans antifungal project, dose response (AID 686999); format: functional, organism-based
[11] = HEK293 cell cytotoxicity, dose response, cytotoxicity control, ATP luminescence, dry powder, set 3 (AID 743131); format: functional, cell-based

Bifunctional protein GlmU, sequence (P9WMN3 whole entry): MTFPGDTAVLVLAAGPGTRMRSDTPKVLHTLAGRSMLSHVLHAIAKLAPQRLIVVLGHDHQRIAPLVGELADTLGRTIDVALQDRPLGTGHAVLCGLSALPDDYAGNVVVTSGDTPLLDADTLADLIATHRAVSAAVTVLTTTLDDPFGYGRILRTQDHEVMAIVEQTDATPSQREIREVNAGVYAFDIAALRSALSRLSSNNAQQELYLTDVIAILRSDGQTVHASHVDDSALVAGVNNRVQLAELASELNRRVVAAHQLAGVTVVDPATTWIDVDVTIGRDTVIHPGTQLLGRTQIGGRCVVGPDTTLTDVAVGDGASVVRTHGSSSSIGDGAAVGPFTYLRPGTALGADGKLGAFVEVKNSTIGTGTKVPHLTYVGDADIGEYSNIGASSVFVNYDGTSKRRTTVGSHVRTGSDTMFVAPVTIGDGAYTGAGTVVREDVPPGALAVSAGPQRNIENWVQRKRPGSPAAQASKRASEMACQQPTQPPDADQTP
ELAV-like protein 1, sequence (Q15717 whole entry): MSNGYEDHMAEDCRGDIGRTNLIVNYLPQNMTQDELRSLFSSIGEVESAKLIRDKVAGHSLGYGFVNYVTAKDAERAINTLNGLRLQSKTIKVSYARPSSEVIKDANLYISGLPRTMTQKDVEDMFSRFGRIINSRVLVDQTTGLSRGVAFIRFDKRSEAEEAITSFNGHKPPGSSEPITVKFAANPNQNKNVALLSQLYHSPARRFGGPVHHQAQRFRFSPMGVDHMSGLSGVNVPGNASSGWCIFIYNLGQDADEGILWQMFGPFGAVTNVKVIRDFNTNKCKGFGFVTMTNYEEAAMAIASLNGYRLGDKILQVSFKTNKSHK
Induced myeloid leukemia cell differentiation protein Mcl-1, sequence (Q07820 whole entry): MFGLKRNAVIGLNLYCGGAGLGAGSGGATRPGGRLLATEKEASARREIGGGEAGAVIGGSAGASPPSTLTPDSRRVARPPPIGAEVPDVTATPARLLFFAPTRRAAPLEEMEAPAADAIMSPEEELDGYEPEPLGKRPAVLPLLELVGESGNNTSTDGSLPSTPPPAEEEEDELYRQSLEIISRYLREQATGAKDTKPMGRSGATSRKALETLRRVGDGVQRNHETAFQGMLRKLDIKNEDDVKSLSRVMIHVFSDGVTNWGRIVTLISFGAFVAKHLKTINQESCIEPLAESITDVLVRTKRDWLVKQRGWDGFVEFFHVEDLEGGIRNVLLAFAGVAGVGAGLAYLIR

In the case of `Cc1cccc(S(=O)(=O)N2CCCCN3[C@@H](CO)[C@@H](c4ccc(C#CC(C)C)cc4)[C@@H]3C2)c1`, the AC50 [1] is reported as 1.18 µM (active) and the AC50 [2] is reported as 15.1 µM (active).

For `O=C1NC(=S)/C(=C\c2ccc(-c3ccccc3Cl)o2)S1`, the EC50 [3] was > 300 µM (not active), the EC50 [4] was 3.42 µM (active) and the EC50 [5] was > 300 µM (not active). The EC50 (Streptokinase A) was 14.7 µM (active), the IC50 [6] was 194 µM (active) and the IC50 [7] was 3.31 µM (active). For the same molecule, the EC50 (Streptococcus) was 28.2 µM (active).

In the case of `O=C(O)C1=NN(c2cc(Cl)c(S(=O)(=O)O)cc2Cl)C(=O)C1`, the IC50 (ELAV-like protein 1) is reported as 16.7 µM (inactive).

For `COC(=O)c1ccc(N2CCN(C(=O)c3ccc4c(c3)OCO4)CC2)cc1`, the AC50 [8] was 12.4 µM (active).

With `Cc1ccc(OCCn2c(S)nc3ccccc32)c(C(C)C)c1` the EC50 [4] was 2.73 µM (active), the EC50 (Streptokinase A) was 15.2 µM (active) and the EC50 (Streptococcus) was 17.2 µM (active). For the same molecule, the AC50 (Cryptococcus neoformans [9]) was 20.7 µM (active), the AC50 (HeLa) was 37.9 µM (active) and the AC50 (Cryptococcus neoformans [10]) was 11.2 µM (active). For the same molecule, the AC50 [11] was 10.3 µM (active).
